{
  "source": "patent US20060058383A1",
  "about": "(priority 2004, published 2006)",
  "key": {"[1]": {"system": "Raji cells", "experiment": "Cellular ATP pool by HPLC", "assay_type": "cell-based, human", "method": "HPLC analysis was then used to determine cellular ATP pool in an attempt to understand the biochemical basis of the synergistic activity of rapamycin and 3-BrOP. Raji cells were treated with various concentrations of 3-BrOP in the presence and absence of rapamycin (100 ng/ml) for 6 h, and cellular ATP and other nucleotide pools were measured by HPLC analysis as described in Examples herein.\nBecause this ATP depletion occurred before apoptosis became detectable, it seems that the enhancement of ATP depletion might be a biochemical mechanism by which rapamycin promote the cytotoxic effect of 3-BrOP. […]\nAfter cells were treated with rapamycin and 3-BrOP under the desired conditions, cellular glucose uptake was measured by incubating the cells in glucose-free RPMI 1640 media with 0.2 μCi/ml of [^3H]-2-deoxyglucose (specific activity, 40 Ci/mmol) for 60 min. After the samples were washed three times with cold PBS, the radioactivity in the cell pellets was quantified by liquid scintillation counting. […] Intracellular nucleotides were extracted from the cells with 0.4 N of perchloric acid (PCA) for 10 min in ice-bath, neutralization with concentrated KOH to pH 7.0, and analyzed by HPLC analysis as described previously (Xu et al., 2005; Seymour et al., 1996). […] The relative cellular ATP levels were expressed as percent of the control cells."}, "[2]": {"system": "Raji cells", "experiment": "Cell growth by direct cell counting (Coulter Z2)", "assay_type": "cell-based, human", "method": "A different assay was then used to further confirm the synergy between rapamycin and 3-BrOP. Raji cells were treated with 30 μM 3-BrOP, 100 ng/ml rapamycin, or their combination, and the numbers of cells were directly counted for consecutive 3 days, using a Coulter Z2 Particle Count & Size Analyzer.\nCell growth inhibition was determined by direct counting of the cells after they were treated with rapamycin, 3-BrOP, or their combination. A Coulter Z2 Particle Count & Size Analyzer was used to determine cell counts at 24 h, 48 h, and 72 h after drug incubation. Apoptosis was measured by flow cytometric analysis of cells stained with annexin V-FITC and propidium iodide (PI). Cells were treated with the indicated compounds under various incubation conditions as described in the figure legends. The samples were collected, washed with cold PBS, and then suspended in annexin-V binding buffer. The cells were stained with annexin V-FITC for 15 min at room temperature, washed, and then stained with PI. The samples were analyzed using a FACSCalibur flow cytometer equipped with CELLQuestPro software (Becton-Dickinson, San Jose, Calif.)."}},
  "data": [
    {"compound": "CCCOC(=O)C(=O)CBr", "note": "[Glycolycin, propyl 3-bromo-2-oxopropionate]", "values": [
      {"measurement": "cellular ATP pool", "setting": "[1]; 6-h treatment after pre-incubation with 100 ng/ml rapamycin for 18 h", "value": "significantly enhanced the depletion of cellular ATP"},
      {"measurement": "cellular ATP pool", "setting": "[1]; various concentrations, 6 h", "value": "concentration-dependent decrease"},
      {"measurement": "decrease in cell numbers", "setting": "[2]; 30 μM alone, up to 72 h", "value": "~35", "unit": "%"},
      {"measurement": "cell growth", "setting": "[2]; 30 μM in combination with 100 ng/ml rapamycin", "value": "almost complete inhibition of cell growth"}
    ]}
  ]
}
